Earlier results as cited in patent US20120178700A1, “PEPTIDOMIMETIC MACROCYCLES” (Aileron Therapeutics, Inc., priority 2008, published 2012).

Assays:
c-Myc/Max dimerization = c-Myc/Max dimerization (Homo sapiens, UniProt P01106); conditions: for preference for inhibition of c-Myc/Max association over related transcription factors: in the presence of their DNA binding motif in vitro
[1] = tested on: c-Myc-dependent oncogenic transformation; conditions: versus transformation dependent on Jun

Chain of c-Myc/Max dimerization (P01106 whole entry): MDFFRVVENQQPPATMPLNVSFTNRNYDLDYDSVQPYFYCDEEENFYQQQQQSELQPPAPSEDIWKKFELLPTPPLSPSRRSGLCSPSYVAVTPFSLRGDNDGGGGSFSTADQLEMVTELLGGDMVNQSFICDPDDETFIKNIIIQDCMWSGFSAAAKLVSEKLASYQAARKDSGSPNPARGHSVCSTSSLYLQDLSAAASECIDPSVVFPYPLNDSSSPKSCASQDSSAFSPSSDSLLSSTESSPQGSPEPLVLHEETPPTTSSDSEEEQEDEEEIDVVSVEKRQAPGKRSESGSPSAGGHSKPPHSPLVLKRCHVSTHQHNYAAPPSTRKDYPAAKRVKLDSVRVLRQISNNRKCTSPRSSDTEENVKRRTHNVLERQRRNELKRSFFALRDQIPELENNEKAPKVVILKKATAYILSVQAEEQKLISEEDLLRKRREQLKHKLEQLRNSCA

O=C(NCc1cccs1)c1cc2nc(-c3cccs3)cc(C(F)(F)F)n2n1 [Mycro2]
preference for inhibition of c-Myc/Max association over related transcription factors (c-Myc/Max dimerization): show a preference

CN(C)CCCNc1cc(O)c2c(c1O)C(=O)c1ccccc1C2=O [MYRA-A]
inhibition of DNA binding of Myc family proteins (Myc family proteins): inhibit DNA binding | c-Myc/Max dimerization (c-Myc/Max dimerization): without interfering

COc1ccc(CNC(=O)c2cc3nc(-c4cccs4)cc(C(F)(F)F)n3n2)cc1 [Mycro1]
preference for inhibition of c-Myc/Max association over related transcription factors (c-Myc/Max dimerization): show a preference

COc1ccc(CN(C(=O)c2ccccn2)C(C(=O)NC2CCCCC2)c2ccc3cc(OCC(=O)OC(C)(C)C)ccc3c2)cc1 (centres unmarked) [NY2267]
inhibition of c-Myc-dependent oncogenic transformation [1]: inhibited c-Myc-dependent oncogenic transformation with preference over transformation dependent on Jun
